Results: PubChem BioAssay (NCI)
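In this assay, cells in 96-well plates receive the compound at five concentrations for 48 hours. Endpoints are linearly interpolated between the surrounding concentrations. TGI is the concentration that stops growth completely.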

How the values were obtained:
Experiment in all cases: NCI tumour cell line growth inhibition, 48 h
[1] = test system: 786-0 renal
[2] = test system: A498 renal
[3] = test system: A549 NSCLC
[4] = test system: ACHN renal
[5] = test system: CAKI-1 renal
[6] = test system: COLO 205 colon
[7] = test system: DLD-1 colon
[8] = test system: DMS 114 small cell lung
[9] = test system: DMS 273 small cell lung
[10] = test system: EKVX NSCLC
[11] = test system: HCC-2998 colon
[12] = test system: HCT-116 colon
[13] = test system: HL-60(TB) leukemia
[14] = test system: HOP-18 NSCLC
[15] = test system: HOP-62 NSCLC
[16] = test system: HOP-92 NSCLC
[17] = test system: HT29 colon
[18] = test system: IGROV1 ovarian
[19] = test system: K-562 leukemia
[20] = test system: KM12 colon
[21] = test system: KM20L2 colon
[22] = test system: LOX IMVI melanoma
[23] = test system: LXFL 529 NSCLC
[24] = test system: M14 melanoma
[25] = test system: M19-MEL melanoma
[26] = test system: MALME-3M melanoma
[27] = test system: MOLT-4 leukemia
[28] = test system: NCI-H226 lung
[29] = test system: NCI-H23 lung
[30] = test system: NCI-H460 lung
[31] = test system: NCI-H522 lung
[32] = test system: OVCAR-3 ovarian
[33] = test system: OVCAR-4 ovarian
[34] = test system: OVCAR-5 ovarian
[35] = test system: OVCAR-8 ovarian
[36] = test system: RPMI-8226 leukemia
[37] = test system: RXF 393 renal
[38] = test system: RXF-631 renal
[39] = test system: SF-268 CNS
[40] = test system: SF-295 CNS
[41] = test system: SF-539 CNS
[42] = test system: SK-MEL-28 melanoma
[43] = test system: SK-MEL-5 melanoma
[44] = test system: SK-OV-3 ovarian
[45] = test system: SN12C renal
[46] = test system: SNB-19 CNS
[47] = test system: SNB-75 CNS
[48] = test system: SNB-78 CNS
[49] = test system: SR leukemia
[50] = test system: SW-620 colon
[51] = test system: TK-10 renal
[52] = test system: U251 CNS
[53] = test system: UACC-257 melanoma
[54] = test system: UACC-62 melanoma
[55] = test system: UO-31 renal
[56] = test system: XF 498 CNS
[57] = test system: CCRF-CEM leukemia
[58] = test system: HCT-15 colon
[59] = test system: SK-MEL-2 melanoma

## O=S(=O)(O)CS(=O)(=O)OCCCl
[1]
  TGI: > 100 µM
[2]
  TGI: > 100 µM
[3]
  TGI: > 100 µM
[4]
  TGI: > 100 µM
[5]
  TGI: > 100 µM
[6]
  TGI: > 100 µM
[7]
  TGI: > 100 µM
[8]
  TGI: > 100 µM
[9]
  TGI: > 100 µM
[10]
  TGI: > 100 µM
[11]
  TGI: > 100 µM
[12]
  TGI: > 100 µM
[13]
  TGI: > 100 µM
[14]
  TGI: > 100 µM
[15]
  TGI: > 100 µM
[16]
  TGI: > 100 µM
[17]
  TGI: > 100 µM
[18]
  TGI: > 100 µM
[19]
  TGI: > 100 µM
[20]
  TGI: > 100 µM
[21]
  TGI: > 100 µM
[22]
  TGI: > 100 µM
[23]
  TGI: > 100 µM
[24]
  TGI: > 100 µM
[25]
  TGI: > 100 µM
[26]
  TGI: > 100 µM
[27]
  TGI: > 100 µM
[28]
  TGI: > 100 µM
[29]
  TGI: > 100 µM
[30]
  TGI: > 100 µM
[31]
  TGI: > 100 µM
[32]
  TGI: > 100 µM
[33]
  TGI: > 100 µM
[34]
  TGI: > 100 µM
[35]
  TGI: > 100 µM
[36]
  TGI: > 100 µM
[37]
  TGI: > 100 µM
[38]
  TGI: > 100 µM
[39]
  TGI: > 100 µM
[40]
  TGI: > 100 µM
[41]
  TGI: > 100 µM
[42]
  TGI: > 100 µM
[43]
  TGI: > 100 µM
[44]
  TGI: > 100 µM
[45]
  TGI: > 100 µM
[46]
  TGI: > 100 µM
[47]
  TGI: > 100 µM
[48]
  TGI: > 100 µM
[49]
  TGI: > 100 µM
[50]
  TGI: > 100 µM
[51]
  TGI: > 100 µM
[52]
  TGI: > 100 µM
[53]
  TGI: > 100 µM
[54]
  TGI: > 100 µM
[55]
  TGI: > 100 µM
[56]
  TGI: > 100 µM

## CCOC(=O)C1C=C2O[C@@H]3OC4(CCCCC4)O[C@@H]3C2[C@H]2C(=O)C=CC(=O)[C@@]12C(=O)OC (stereo not given in full)
[1]
  TGI: 18.7 µM
[2]
  TGI: 32.6 µM
[3]
  TGI: 33.1 µM
[4]
  TGI: 32.2 µM
[5]
  TGI: 31.3 µM
[57]
  TGI: 9.94 µM
[6]
  TGI: 22.4 µM
[7]
  TGI: 35.1 µM
[8]
  TGI: 9.68 µM
[9]
  TGI: 22.9 µM
[10]
  TGI: 36.1 µM
[11]
  TGI: 28 µM
[12]
  TGI: 19.1 µM
[58]
  TGI: 28.8 µM
[13]
  TGI: 5.83 µM
[14]
  TGI: 32.4 µM
[15]
  TGI: 36.3 µM
[16]
  TGI: 26.2 µM
[17]
  TGI: 19.4 µM
[18]
  TGI: 27.6 µM
[19]
  TGI: 34.2 µM
[20]
  TGI: 27.8 µM
[21]
  TGI: 30.6 µM
[22]
  TGI: 32.9 µM
[23]
  TGI: 22.9 µM
[24]
  TGI: 30.1 µM
[25]
  TGI: 31.4 µM
[26]
  TGI: 31.2 µM
[27]
  TGI: 8.71 µM
[28]
  TGI: 36.4 µM
[29]
  TGI: 45.2 µM
[30]
  TGI: 33.4 µM
[31]
  TGI: 14.5 µM
[32]
  TGI: 22.1 µM
[33]
  TGI: 23.3 µM
[34]
  TGI: 31.7 µM
[35]
  TGI: 13.9 µM
[36]
  TGI: 8.06 µM
[37]
  TGI: 3.59 µM
[38]
  TGI: 51.8 µM
[39]
  TGI: 29.6 µM
[40]
  TGI: 32.6 µM
[41]
  TGI: 6.16 µM
[59]
  TGI: 30.6 µM
[42]
  TGI: 30 µM
[43]
  TGI: 33.9 µM
[44]
  TGI: 32.2 µM
[45]
  TGI: 31.5 µM
[46]
  TGI: 22.9 µM
[47]
  TGI: 35.4 µM
[48]
  TGI: 19.3 µM
[49]
  TGI: 6.71 µM
[50]
  TGI: 28.6 µM
[51]
  TGI: 26.5 µM
[52]
  TGI: 21.5 µM
[53]
  TGI: 30.8 µM
[54]
  TGI: 30.9 µM
[55]
  TGI: 29.9 µM
[56]
  TGI: 12.8 µM
